The values below are quoted from earlier work in patent US8278451B2, “Pseudoazulenyl nitrones” (The Florida International University Board of Trustees, priority 2006, dated 2012).

Each structure is given as a SMILES string.

Data set [1] concerns LPS-induced organ dysfunction and cytokine secretion. The following applies: rats, LPS administered.
The test system of data set [2] is age-related changes in cognitive performance. Conditions: aged rats, chronic treatment.
In the next data set the test system is lifespan. The following applies: aged animal model, daily intraperitoneal injection, male and female.
Data set [3] concerns human diploid fibroblast cells. The following applies: human diploid fibroblast cells in culture.
For data set [4] the following is noted: aqueous solution at pH 7 and 20° C.

Take `CC1(C)Cc2ccccc2C=[N+]1[O-]` [MDL 101,002]: in data set [1], the LPS-induced leukopenia result is “failed to prevent leukopenia”; the LPS-induced pulmonary edema entry is reported as “prevented pulmonary edema”; the LPS-induced thrombocytopenia entry is given as “partially reduced thrombocytopenia”; the “organ dysfunction and cytokine secretion induced by LPS” value is “reduces organ dysfunction and cytokine secretion”.

For the compound `CC(C)(C)[N+]([O-])=Cc1ccccc1` [PBN, alpha-phenyl-N-tert-butylnitrone], in data set [2], the “age-related changes in cognitive performance” value was “benefit (i.e., improve) age-related changes in cognitive performance”. Besides, the lifespan entry in the data set with lifespan is on record as “remarkable extension of the lifespan”. Further, the onset of senescence result in data set [3] is listed as “effectively delayed the onset of senescence”.

`Cc1c(C)c2c(c(C)c1O)CC[C@@](C)(CCC[C@H](C)CCC[C@H](C)CCCC(C)C)O2` [vitamin E, alpha-tocopherol]: the “age-related changes in cognitive performance” value in data set [2] is reported as “benefit (i.e., improve) age-related changes in cognitive performance”. Also, in data set [4], the “one-electron oxidative potential (vs. NHE)” value is given as 0.48 V.
